Results taken from US20260364184A1, “COMPOUND BASED ON OXOISOINDOLINYL-SUBSTITUTED TETRAHYDROPYRIMIDINE-DIONE AND USE THEREOF” (GLUETACS THERAPEUTICS (SHANGHAI) CO., LTD., priority 2023, published 2026).
Blank lines part the entries; values can stand above or below the molecule they belong to.

Assays:
[1] = tested on: Human gastric cancer cell line MGC803; experiment: Inhibition of MGC803 tumor cell proliferation (CellTiter luminescent viability); format: cell-based; settings: Table IA1, IRAK4 inhibitor-based compounds; MGC803, 96 hours; read-out: Inhibitory activity (IC50, nM) on tumor cell proliferation, MGC803
Outline: (§1)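 Cells are seeded in 96-well plates, cultured at 37 °C, 5% CO2, and treated next day with 5-fold serial compound dilutions (stock series from 2000 μM; 0.5 μL into 100 μL medium). Viability is read by CellTiter-Meiluncell luminescence after the set exposure, and IC50 is taken from growth-inhibition curves.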

[2] = tested on: Human large cell immunoblastic lymphoma cell line SR; experiment: Inhibition of SR cell proliferation (CellTiter luminescent viability); format: cell-based; settings: Table IA1, IRAK4 inhibitor-based, 96 hours, read-out: Inhibitory activity (IC50, nM) on tumor cell proliferation, SR
Outline: as §1

[3] = tested on: JEKO-1; experiment: Inhibition of JEKO-1 cell proliferation (CellTiter luminescent viability); format: cell-based, human; settings: Table IA1, IRAK4 inhibitor-based; JEKO-1, 96 hours; read-out: Inhibitory activity (IC50, nM) on tumor cell proliferation, JEKO-1
Outline: as §1

[4] = tested on: Human diffuse large B-cell lymphoma cell line (TMD8); experiment: Inhibition of TMD8 cell proliferation (CellTiter luminescent viability); format: cell-based; settings: Homo sapiens, TMD8, 96 h, Table IF1, AR inhibitor-based; for inhibition at 0.01 µM: TMD8, 10 nM, read-out: Inhibition Rate at 10 nM (%); for inhibition at 0.5 µM: TMD8, 500 nM, read-out: Inhibition Rate at 500 nM (%)
[5] = tested on: Human Acute T Lymphoblastic Leukemia Cells (Molt-4); experiment: Inhibition of Molt-4 cell proliferation (CellTiter luminescent viability); format: cell-based; settings: Homo sapiens, MOLT-4, 96 h, Table IA2, IRAK4 inhibitor-based, 96 hours; for inhibition at 0.01 µM: Molt-4, 10 nM, read-out: Inhibition Rate at 10 nM (%); for inhibition at 0.5 µM: Molt-4, 500 nM, read-out: Inhibition Rate at 500 nM (%)
[6] = tested on: Human myeloid monocytic leukemia cell line (MV-4-11); experiment: Inhibition of MV-4-11 cell proliferation (CellTiter luminescent viability); format: cell-based; settings: Homo sapiens, MV4-11, Table IA3, IRAK4 inhibitor-based, 96 hours; for inhibition at 0.01 µM: MV-4-11, 10 nM, read-out: Inhibition Rate at 10 nM (%); for inhibition at 0.5 µM: MV-4-11, 500 nM, read-out: Inhibition Rate at 500 nM (%)
Outline: as §1

[7] = tested on: Human acute lymphocytic leukemia T lymphocytes cell line (CCRF-CEM); experiment: Inhibition of CCRF-CEM cell proliferation (CellTiter luminescent viability); format: cell-based; settings: Homo sapiens, 96 h, Table IF2, AR inhibitor-based; for inhibition at 0.01 µM: 10 nM, read-out: Inhibition Rate at 10 nM (%); for inhibition at 0.5 µM: 500 nM, read-out: Inhibition Rate at 500 nM (%)

IC50 [1]: 100 to 300 nM
IC50 [2]: 500 to 1000 nM
SMILES: O=C1CCN(N2Cc3cc(CN4CCC(n5cc(NC(=O)c6coc(-c7ccnc(NCC8CC8)c7)n6)c(C(F)F)n5)CC4)ccc3C2=O)C(=O)N1 [GT-04951, 2-(2-((cyclopropylmethyl)amino)pyridin-4-yl)-N-(3-(difluoromethyl)-1-(1-((2-(2,4-dioxotetrahydropyrimidin-1(2H)-yl)-1-oxoisoindolin-5-yl)methyl)piperidin-4-yl)-1H-pyrazol-4-yl) oxazole-4-carboxamide]
IC50 [3]: 100 to 300 nM

IC50 [1]: 500 to 1000 nM
IC50 [2]: 500 to 1000 nM
SMILES: O=C1CCN(N2Cc3cc(CN4CCC(n5cc(NC(=O)c6cnn7ccc(N8C[C@H]9C[C@@H]8CO9)nc67)c(C(F)F)n5)CC4)ccc3C2=O)C(=O)N1 [GT-05028, 5-((1R,4R)-2-oxa-5-azabicyclo[2.2.1]heptan-5-yl)-N-(3-(difluoromethyl)-1-(1-((2-(2,4-dioxotetrahydropyrimidin-1(2H)-yl)-1-oxoisoindolin-5-yl)methyl)piperidin-4-yl)-1H-pyrazol-4-yl)pyrazolo[1,5-a]pyrimidine-3-carboxamide]
IC50 [3]: 300 to 500 nM

SMILES: N#Cc1ccc(O[C@H]2CC[C@H](NC(=O)c3ccc(N4CCC(CN5C[C@@H]6C[C@H]5CN6c5ccc6c(c5)C(=O)N(N5CCC(=O)NC5=O)C6=O)CC4)nn3)CC2)cc1Cl [GT-05226, N-((1r,4r)-4-(3-chloro-4-cyanophenoxy)cyclohexyl)-6-(4-(((1S,4S)-5-(2-(2,4-dioxotetrahydropyrimidin-1(2H)-yl)-1,3-dioxoisoindolin-5-yl)-2,5-diazabicyclo[2.2.1]heptan-2-yl)methyl)piperidin-1-yl)pyridazine-3-carboxamide]
inhibition at 0.01 µM [4]: 10 to 15%
inhibition at 0.5 µM [4]: 25 to 30%

SMILES: O=C1CCN(N2Cc3cc(CN4CCC(n5cc(NC(=O)c6cnn7ccc(N8CCOCC8)nc67)c(C(F)F)n5)CC4)ccc3C2=O)C(=O)N1 [GT-05749]
inhibition at 0.01 µM [5]: 7 to 10%
inhibition at 0.5 µM [5]: 60 to 80%
inhibition at 0.01 µM [6]: 0 to 10%
inhibition at 0.5 µM [6]: 80 to 100%

SMILES: O=C1CCN(N2C(=O)c3cccc(N4CCC(CN5CCC(n6cc(NC(=O)c7cnn8ccc(N9C[C@H]%10C[C@@H]9CO%10)nc78)c(C(F)F)n6)CC5)CC4)c3C2=O)C(=O)N1 [GT-05285, 5-((1R,4R)-2-oxa-5-azabicyclo[2.2.1]heptan-5-yl)-N-(3-(difluoromethyl)-1-(1-((1-(2-(2,4-dioxotetrahydropyrimidin-1(2H)-yl)-1,3-dioxoisoindolin-4-yl)piperidin-4-yl)methyl)piperidin-4-yl)-1H-pyrazol-4-yl)pyrazolo[1,5-a]pyrimidine-3-carboxamide]
inhibition at 0.01 µM [5]: -5 to 0%
inhibition at 0.5 µM [5]: 80 to 100%
inhibition at 0.01 µM [6]: 45 to 50%
inhibition at 0.5 µM [6]: 80 to 100%

SMILES: N#Cc1ccc(O[C@H]2CC[C@H](NC(=O)c3ccc(N4CCC(CN5CC6CCC5CN6c5ccc6c(c5)C(=O)N(N5CCC(=O)NC5=O)C6=O)CC4)nn3)CC2)cc1Cl (stereo partly drawn) [GT-05832, N-((1r,4r)-4-(3-chloro-4-cyanophenoxy)cyclohexyl)-6-(4-((5-(2-(2,4-dioxotetrahydropyrimidin-1(2H)-yl)-1,3-dioxoisoindolin-5-yl)-2,5-diazabicyclo[2.2.2]octan-2-yl)methyl)piperidin-1-yl)pyridazine-3-carboxamide]
inhibition at 0.01 µM [4]: 10 to 15%
inhibition at 0.5 µM [4]: 40 to 60%
inhibition at 0.01 µM [7]: -5 to 0%
inhibition at 0.5 µM [7]: 30 to 40%

SMILES: CC1(C)[C@H](NC(=O)c2ccc(N3CCC(CN4CC5CCC4CN5c4ccc5c(c4)C(=O)N(N4CCC(=O)NC4=O)C5=O)CC3)nc2)C(C)(C)[C@H]1Oc1ccc(C#N)c(Cl)c1 (stereo partly drawn) [GT-05834, N-((1r,3r)-3-(3-chloro-4-cyanophenoxy)-2,2,4,4-tetramethylcyclobutyl)-6-(4-((5-(2-(2,4-dioxotetrahydropyrimidin-1(2H)-yl)-1,3-dioxoisoindolin-5-yl)-2,5-diazabicyclo[2.2.2]octan-2-yl)methyl)piperidin-1-yl)nicotinamide]
inhibition at 0.01 µM [4]: 15 to 20%
inhibition at 0.5 µM [4]: 40 to 60%
inhibition at 0.01 µM [7]: 10 to 15%
inhibition at 0.5 µM [7]: 40 to 60%
